Where a name gives a salt, the structure may show the parent alone. Read-outs that look alike come from different tables or passages of the source. Blank lines part the entries; values can stand above or below the molecule they belong to.
Tests used:
[1] = amide bond, 15-membered ring, HATU/NMM, DMF, 25.0 °C, 12.0 h
[2] = from CNCc1cc(NC(=O)COCc2cccc(C(Nc3ccc4c(N(C(=O)OC(C)(C)C)C(=O)OC(C)(C)C)ncc(F)c4c3)C(=O)O)c2)ccc1S(=O)(=O)C1CC1; amide bond; 15-membered ring; BOP/DMAP/DIPEA; DCM/DMF; 20.7 mM; 25.0 °C; 13.0 h; 2 steps
FVIIa = biological target: T1, FVIIa (Homo sapiens, UniProt P08709); assay: FVIIa-Xase Ki (37° C.); format: biochemical
T1 construct: with about 1% of the total amount in the proteolytically active form factor VIIa
T1 sequence (P08709 213-466 limits assumed): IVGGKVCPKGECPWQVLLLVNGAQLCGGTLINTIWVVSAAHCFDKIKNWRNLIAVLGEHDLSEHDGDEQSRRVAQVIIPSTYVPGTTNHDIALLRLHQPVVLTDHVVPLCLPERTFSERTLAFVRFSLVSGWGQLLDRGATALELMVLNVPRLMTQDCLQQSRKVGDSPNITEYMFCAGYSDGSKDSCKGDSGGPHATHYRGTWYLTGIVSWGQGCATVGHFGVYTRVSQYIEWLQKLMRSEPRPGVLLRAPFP
T1 sequence (P08709 61-212 limits assumed): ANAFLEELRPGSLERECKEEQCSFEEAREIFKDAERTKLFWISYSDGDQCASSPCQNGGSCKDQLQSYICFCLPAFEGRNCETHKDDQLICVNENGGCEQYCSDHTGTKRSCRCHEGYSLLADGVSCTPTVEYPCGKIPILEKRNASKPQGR
T1 sequence (P13726 33-295 partner): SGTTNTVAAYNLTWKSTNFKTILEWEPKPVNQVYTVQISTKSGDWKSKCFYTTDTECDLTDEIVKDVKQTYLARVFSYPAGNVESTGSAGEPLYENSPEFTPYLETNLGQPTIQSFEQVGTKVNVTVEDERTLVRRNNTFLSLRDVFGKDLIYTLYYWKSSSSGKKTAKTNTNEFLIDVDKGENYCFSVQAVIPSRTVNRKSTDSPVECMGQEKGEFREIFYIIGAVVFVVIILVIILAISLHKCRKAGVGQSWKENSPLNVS
Experimental: The effectiveness of compounds of the present invention as inhibitors of the coagulation Factors, VIIa, IXa, Xa, XIa, XIIa, plasma kallikrein or thrombin, tissue kallikrein and activated protein C, can be determined using a relevant purified serine protease, respectively, and an appropriate synthetic substrate. The rate of hydrolysis of the chromogenic or fluorogenic substrate by the relevant serine protease was measured both in the absence and presence of compounds of the present invention. […] A decrease in the rate of absorbance or fluorescence change in the presence of inhibitor is indicative of enzyme inhibition. Such methods are known to one skilled in the art. The results of this assay are expressed as the inhibitory constant, Ki.
Reactions were initiated by the addition of human FX (range of concentrations). […] The residual FVIIa is sufficient, when combined with PCPS, calcium and TF to catalyze the conversion of FX to Xa, and was increased by the addition of 5 pM human FVIIa. FXa in turn hydrolyses S2765, which was monitored for 60 min at 405 nm. FXase activity was derived from the parabolic change in absorbance over time according to Equation 2: Absorbance=½ at 2+bt+c (Eq. 2) where a is proportional to the rate of FX activation≡product≡vs; b is proportional to the hydrolysis of S2765 in the absence of FXa; c is the absorbance at t=0. […]

Structure (SMILES): CN1CCc2cccc(c2)C(Nc2ccc3c(N(C(=O)OC(C)(C)C)C(=O)OC(C)(C)C)nccc3c2)C(=O)N(C)Cc2cc(ccc2S(=O)(=O)C2CC2)NC1=O (centres unmarked)
ring closure, yield after HPLC ([1]; from CNCc1cc(NC(=O)N(C)CCc2cccc(C(Nc3ccc4c(N(C(=O)OC(C)(C)C)C(=O)OC(C)(C)C)nccc4c3)C(=O)O)c2)ccc1S(=O)(=O)C1CC1): 61%

Structure (SMILES): CN1Cc2cc(ccc2S(=O)(=O)C2CC2)NC(=O)COCc2cccc(c2)C(Nc2ccc3c(N(C(=O)OC(C)(C)C)C(=O)OC(C)(C)C)ncc(F)c3c2)C1=O (centres unmarked)
ring closure, crude yield [2]: 48%

Structure (SMILES): COc1ccc2cc1[C@H](C)CN(C)C(=O)Nc1ccc(S(=O)(=O)C3CC3)c(c1)CN(C)C(=O)C2Nc1ccc2c(N(C(=O)OC(C)(C)C)C(=O)OC(C)(C)C)nccc2c1 (some centres unmarked)
ring closure, yield after HPLC ([1]; from CNCc1cc(NC(=O)N(C)C[C@@H](C)c2cc(C(Nc3ccc4c(N(C(=O)OC(C)(C)C)C(=O)OC(C)(C)C)nccc4c3)C(=O)O)ccc2OC)ccc1S(=O)(=O)C1CC1, 1.11 mM): 11%

Ki (FVIIa): 92 nM
Structure (SMILES): CN1Cc2cc(ccc2S(=O)(=O)C2CC2)NC(=O)CCc2cc(ccc2O)[C@@H](Nc2ccc3c(N)ncc(F)c3c2)C1=O (single isomer, unassigned) [Example 16]

Ki (FVIIa): 6 nM
Structure (SMILES): CN1CCc2cccc(c2)C(Nc2ccc3c(N)nccc3c2)C(=O)N(C)Cc2cc(ccc2S(=O)(=O)C2CC2)NC1=O (centres unmarked) [Example 13, trifluoroacetic acid salt]

Reference: patent publication US9657006B2, “Macrocyclic factor VIIa inhibitors” (BRISTOL-MYERS SQUIBB COMPANY, priority 2013, dated 2017)
